# Experimental data published in PMC8143069 (Cell Discovery, 2021).
# Entries after “also recorded” stand apart in the source; their conditions may differ. Structures can show the parent of a compound that is named as a salt. Where two headings read alike, the source gives them in different places. Where no end group is shown, it is not given here. [ ]: non-standard residue; d: D form. Lys(Me2) = CN(C)CCCC[C@H](N)C(=O)O
# B1: sarilumab (antibody, chains of the INN, looked up, V domains shown)
# VH: EVQLVESGGGLVQPGRSLRLSCAASRFTFDDYAMHWVRQAPGKGLEWVSGISWNSGRIGYADSVKGRFTISRDNAENSLFLQMNGLRAEDTALYYCAKGRDSFDIWGQGTMVTVSS
# VL: DIQMTQSPSSVSASVGDRVTITCRASQGISSWLAWYQQKPGKAPKLLIYGASSLESGVPSRFSGSGSGTDFTLTISSLQPEDFASYYCQQANSFPYTFGQGTKLEIK
# Tests used:
# human recombinant LSD1 [1] = format: biochemical
# [2] = system: ACE2 (pan-methylation lysine), Caco-2 cells; format: cell-based, human
# [3] = system: SARS-CoV-2 spike protein at Caco-2 cell surface; format: cell-based
# [4] = system: ACE2-SARS-CoV-2 spike protein interaction, Caco-2 cells; format: cell-based, human / SARS-CoV-2
# SARS-CoV-2 [5] = format: cell-based
# SARS-CoV-2 [6] = format: cell-based; remark: listed apart in the source
# [7] = system: SARS-CoV-2-infected Caco-2 cells; format: cell-based, human
# [8] = system: SARS-CoV-2-infected Caco-2 cells; format: cell-based, human; remark: listed apart in the source
# [9] = system: SARS-CoV-2-infected Caco-2 cells; format: cell-based, human / SARS-CoV-2
# [10] = system: ACE2-IMPα3 colocalization, SARS-CoV-2-infected Caco-2 cells; format: cell-based, human
# Caco-2 cells [11] = system: Caco-2 cells
# Caco-2 cells [12] = system: Caco-2 cells; remark: listed apart in the source
# LSD1 = settings: cited from earlier work
# [13] = system: SARS-CoV-2-S-driven entry, Caco-2 cells; settings: cited from earlier work
# COVID-19 = settings: cited from earlier work
# [14] = system: nuclear LSD1/CoREST complex; settings: cited from earlier work
# [15] = system: T cells in human breast cancer; settings: cited from earlier work
# human recombinant LSD1 [16] = assay: LSD1 demethylation assay with di-methylated ACE2 peptides as substrates; format: biochemical; settings: for Demethylation of NLS peptides by LSD1 (rank order): LSD1 fluorimetric kit, background subtracted, one-way ANOVA P < 0.0001 (Fig. 4d)
# ACE2, Caco-2 cells = format: cell-based, human; settings: Caco-2, FAM5-tagged NACE2i, single treatment, after 8 h and up to 96 h; P < 0.0001 (Fig. 5b)
# Caco-2 cells [17] = format: physicochemical, human; settings: FAM5-tagged peptide, single treatment, Caco-2 culture, over 96 h, fluorescence imaging
# SARS-CoV-2 [18] = settings: cited from earlier work
molecule,measurement,setting,value
N[C@@H]1C[C@H]1c1ccccc1 (racemic) [tranylcypromine],ACE2 lysine 31 (ACE2me2 peptide) demethylation,human recombinant LSD1 [1],significantly decreased ACE2 lysine 31 demethylation
"O=C(O)c1ccc(CN2CCC(CN[C@@H]3C[C@H]3c3ccccc3)CC2)cc1 [GSK, GSK2879552]",ACE2 lysine 31 (ACE2me2 peptide) demethylation,human recombinant LSD1 [1],further decreases were observed
same,association between ACE2 and pan-methylation lysine antibody (PLA),[2],increased the association between ACE2 and pan-methylation lysine antibody in infected cells
same,spike protein expression at the cell surface,[3],"to a greater extent GSK treatment, reduced spike protein expression at the cell surface of infected cells"
same,ACE2/spike interaction at cell surface (PLA),[4],significantly decreased interaction
same,viral RNA levels in culture supernatants,SARS-CoV-2 [5],negligibly reduced viral RNA levels in culture supernatants
same,inhibition of viral RNA in infected cells (comparison),SARS-CoV-2 [6],greatest inhibition of viral RNA in infected cells
same,"viral load, % virus-aligned reads over total reads",SARS-CoV-2 [6],1%
same,enriched Reactome pathways vs control,[7],downregulated genes enriched in the IFN pathway
same,number of differentially expressed genes vs control,[7],73 DEGs
same,"LSD1, ACE2, and TMPRSS2 transcript",[8],remained unaltered
same,"RIG1, MDA5, and ISG15 mRNA",[8],remained unaltered
same,SARS-CoV-2 spike protein expression,[9],decreased SARS-CoV-2 spike protein expression
same,co-localization of ACE2 and SARS-CoV-2 spike protein,[9],significantly reduced the co-localization of ACE2 and SARS-CoV-2 spike protein
same,IMPα3 nuclear expression,[10],no effect on IMPα3 nuclear expression
same,co-localization of ACE2 and IMPα3 (PCC),[10],minimal effect
same,cell proliferation,Caco-2 cells [11],neither altered cell proliferation
same,cell viability,"Caco-2 cells [12]; uninfected Caco-2, up to 72 h, n=3 (Fig. S2d)",> 90%
same,inhibition of LSD1 catalytic activity (compared with phenelzine),LSD1,significantly more potent inhibitor of LSD1 catalytic activity than phenelzine
C/C(=N\NC(=O)c1cccc(S(=O)(=O)N2CCOCC2)c1)c1cc(Cl)ccc1O [SP2509],ACE2 lysine 31 (ACE2me2 peptide) demethylation,"human recombinant LSD1 [1]; LSD1 incubated with inhibitor 30 min at room temperature, LSD1 fluorimetric kit, 40 s intervals, one-way ANOVA P < 0.0001 (Fig. 2a)",showed the highest inhibitory potency of all the LSD1 inhibitors in vitro
CN(C)C(=O)COC(=O)Cc1ccc(OC(=O)c2ccc(NC(=N)N)cc2)cc1 [camostat mesylate],SARS-CoV-2-S-driven entry,[13],partially blocked SARS-CoV-2-S-driven entry into Caco-2 cells
CCN(CCO)CCCC(C)Nc1ccnc2cc(Cl)ccc12 (stereo not shown) [hydroxychloroquine],clinical outcome in COVID-19,COVID-19,lack of effect or even increased harm
NNCCc1ccccc1 [phenelzine],spike protein expression at the cell surface,[3],reduced spike protein expression at the cell surface of infected cells
same,viral RNA levels in culture supernatants,SARS-CoV-2 [5],negligibly reduced viral RNA levels in culture supernatants
same,"DUSP1, DUSP6, DUPS8 expression",[7],highly upregulated
same,IRF7 gene expression,[7],upregulation of IRF7 gene expression
same,enriched Reactome pathways vs control,[7],translation and MAPK pathways were enriched; also recorded: post-transcriptional protein phosphorylation and amino acid synthesis and interconversion (transamination) processes were significantly enriched; also recorded: regulates MAPK signaling-related pathways
same,number of differentially expressed genes vs control,[7],1059 DEGs
same,IFNβ and OASL expression,[8],further increased
same,"LSD1, ACE2, and TMPRSS2 transcript",[8],remained unaltered
same,"RIG1, MDA5, and ISG15 mRNA",[8],remained unaltered
same,SARS-CoV-2 spike protein expression,[9],decreased SARS-CoV-2 spike protein expression
same,co-localization of ACE2 and SARS-CoV-2 spike protein,[9],significantly reduced the co-localization of ACE2 and SARS-CoV-2 spike protein
same,IMPα3 nuclear expression,[10],no effect on IMPα3 nuclear expression
same,co-localization of ACE2 and IMPα3 (PCC),[10],minimal effect
same,cell proliferation,Caco-2 cells [11],neither altered cell proliferation
same,cell viability,Caco-2 cells [12],> 90%
same,disruption of nuclear LSD1/CoREST complex,[14],can disrupt the nuclear LSD1/CoREST complex
same,T cell responses,[15],epigenetically restore T cell responses in human breast cancer
QAKTFLD[Lys(Me2)]FNHEAED [ACE2me2],Demethylation of peptide by LSD1 (substrate),"human recombinant LSD1 [16]; ACE2me2 peptide, lysine 31, fluorescence",efficiently de-methylated
TGIRDRKKKNKARS-(FAM5) [FAM5-tagged NACE2i],nuclear ACE2 expression over time,"ACE2, Caco-2 cells",significantly inhibited nuclear ACE2 expression after 8 h and up to 96 h
same,peptide stability,Caco-2 cells [17],stable over time
TGIRDRKK[Lys(Me2)]NKARS [PEP3],Demethylation of NLS peptides by LSD1 (rank order),human recombinant LSD1 [16],"followed by PEP3, PEP2, and PEP1"
TGIRDRK[Lys(Me2)]KNKARS [PEP2],Demethylation of NLS peptides by LSD1 (rank order),human recombinant LSD1 [16],"followed by PEP3, PEP2, and PEP1"
TGIRDR[Lys(Me2)]KKNKARS [PEP1],Demethylation of NLS peptides by LSD1 (rank order),human recombinant LSD1 [16],"followed by PEP3, PEP2, and PEP1"
TGIRDR[Lys(Me2)]K[Lys(Me2)]NKARS [PEP4],Demethylation of NLS peptides by LSD1 (rank order),human recombinant LSD1 [16],greatest demethylation
ivermectin,SARS-CoV-2 replication,SARS-CoV-2 [18],inhibits SARS-CoV-2 replication
tocilizumab,clinical outcome in COVID-19,COVID-19,mixed results in clinical studies
B1,clinical outcome in COVID-19,COVID-19,mixed results in clinical studies
